Experiments:
[1] = tested on: acutely isolated substantia nigra pars reticulata neurons; assay: Application of 2-NBDG or 2-NBDLG to acutely isolated neurons (normal fluorescence microscope); assay type: cell-based, mouse; settings: 200 μM solution administered for 1 minute, 36 to 37° C., fluorescence images at 10 and 30 minutes after initiation of washing
Protocol: C57BL/6J mice at the age of 13 to 15 days after birth (juvenile period) or at the age of 33 to 45 days after birth (maturation period) were deeply anesthetized with urethane (i.p. 1.6 g/kg) and decapitated according to a common procedure. Thereafter, the brain was taken out from each mouse and cooled by immersion in a cold Ringer's solution^note 1) (at 0° C.) for 1 to 2 minutes, and then, coronal brain slices with a thickness of 400 μm were prepared using a microslicer (ZERO 1, Dosaka EM Co., Ltd.). […]
In a homemade perfusion chamber (Non-patent document 2) mounted on a heating-type xy stage (Zeiss Tempcontrol 37-2) of an inverted fluorescence microscope from Zeiss Axiovert 135 (100 W, a xenon light source), a 35-mm glass bottom culture dish^note 4) was placed, and a glass coverslip (neurons were placed thereon according to the method described in (A)) placed in the dish was perfused with a HEPES solution for recording at a rate of 1.3 mL/min. […]
In the fluorescence detection, a 450-490 nm standard bandpass excitation filter manufactured by Zeiss, Inc., a 510 nm dichroic mirror, and a 515-565 nm emission filter were used without using an ND filter, and as the objective lens, a Zeiss Plan Neofluar ×20 lens (NA 0.50) was used. […]

acutely isolated neurons = assay: Application of mixed solution of 2-NBDG and 2-TRLG to acutely isolated neurons (real-time laser scanning confocal fluorescence microscope); assay type: cell-based, mouse; settings: mixed solution of 20 μM 2-TRLG and 100 μM 2-NBDG administered for 1 minute, 24° C., image at 1 minute after stopping the administration
Protocol: The preparation of acutely isolated neurons was performed in the same manner as in Example 1.
Then, 10 μL of this 2 mM solution was dissolved in 1 mL of a glucose-free HEPES buffer solution^note 6) containing 100 μM 2-NBDG so as to dilute the 2 mM solution to 100-fold, whereby a mixed solution of 20 μM 2-TRLG and 100 μM 2-NBDG was obtained.
3 mL of a HEPES solution^note 2) was added to a 35-mm glass bottom culture dish^note 4) having a glass bottom to which neurons were adhered, and further 3 mL of mineral oil (M8410, Sigma CO., Ltd.) was laminated thereon. […]
A total of three detectors (channels): a photomultiplier detector for light in a green wavelength range (PMT1) and a photomultiplier detector for light in a red wavelength range (PMT2), and also a detector for transmitted light (PMTTrans) were used simultaneously, and 512×512 pixel images were captured. The detection sensitivity was set as follows: PMT1: 868 V, PMT2: 868 V, and PMTtrans: 245 V. Incidentally, the optimal values of the detection wavelength ranges of green fluorescence (500-580 nm) and red fluorescence (580-740 nm) were selected not on the basis of an emission filter system, but on the basis of a system using a prism spectroscope and a slit in combination (standard of TCS SP5, Leica, Inc.). […]

Escherichia coli K12 = assay: Incorporation of 2-NBDG or 2-NBDLG into Escherichia coli (evaluation for the state of Escherichia coli); assay type: cell-based; settings: for difference in fluorescence detection between 2-NBDG and 2-NBDLG: dead cells prepared by treating live cells with 70% ethanol at room temperature for 10 minutes; for fluorescence due to the incorporation into the cells: live cells, 50 μM, 37° C. for 10 minutes
Protocol: Escherichia coli K12 was cultured with shaking overnight at 37° C. A 1 mL portion of the culture was centrifuged to collect cells, and the cells were suspended in 1 mL of phosphate buffered saline (PBS, a mixed solution of 0.01 M phosphate buffer and 0.137 M NaCl at pH 7.4). A 90 μL portion of the suspension was taken out, and 10 μL of the 2-NBDG solution or the 2-NBDLG solution was added thereto to give a final concentration of 50 μM, and then, an incorporation reaction was allowed to proceed at 37° C. for 10 minutes. After the reaction, the cells were collected by centrifugation and resuspended in PBS, and the cells were microscopically observed (objective lens ×10) and recorded using a CCD camera for microscopic observation.

[2] = Fluorescence spectrum (maximum fluorescence wavelength); assay type: physicochemical
From the text: When the case where a mixed liquid of 2-NBDG and 2-TRLG was used as the mixed liquid of a D-glucose derivative that has a fluorescent chromophore in the molecule and is specifically incorporated into cells and an L-glucose derivative that has, in the molecule, a fluorescent chromophore that emits fluorescence at a wavelength different from that of the fluorescence emitted by the D-glucose derivative that has a fluorescent chromophore in the molecule and is specifically incorporated into cells is cited as an example, the maximum fluorescence wavelength of the former is from 540 nm to 550 nm, and the maximum fluorescence wavelength of the latter is from 600 nm to 610 nm. Therefore, when the fluorescence at a wavelength in the vicinity of each of the maximum fluorescence wavelengths is detected for the solution obtained by mixing both glucose derivatives, the green fluorescence emitted by 2-NBDG and the red fluorescence emitted by 2-TRLG can be detected, respectively, and as a result of combining the both fluorescence spectra detected, yellow fluorescence can be detected. After administration of the mixed liquid of 2-NBDG and 2-TRLG to cells, when 2-NBDG is specifically incorporated into the cells, green fluorescence is detected from the inside of the cells. […] Therefore, by detecting the green fluorescence emitted by 2-NBDG after the mixed liquid of 2-NBDG and 2-TRLG is administered to cells, the specific incorporation of D-glucose into cells relative to L-glucose can be accurately evaluated in real time.
Incidentally, the validity of this evaluation result is supported by the result that when the mixed solution of 20 μM 2-TRLG and 100 μM 2-NBDG is used, green fluorescence emitted by 2-NBDG can be detected by detecting fluorescence at around 540 nm, and red fluorescence emitted by 2-TRLG can be detected by detecting fluorescence at around 610 nm (in the case of pH 7.4, the maximum fluorescence wavelength of 2-NBDG is 540 nm, and the maximum fluorescence wavelength of 2-TRLG is 610 nm, see FIG. 4). […]

[3] = 2-NBDG, 2-TRLG and 2-NMALG mixed at 1:1:25 (molar ratio), excited by laser light at 405 nm (FIG. 6)

Row | SMILES | green fluorescence from the cell (incorporation into the cell) [1] | fluorescence based on incorporation into the cell (acutely isolated neurons) | difference in fluorescence detection between 2-NBDG and 2-NBDLG (Escherichia coli K12) | fluorescence due to the incorporation into the cells (Escherichia coli K12) | maximum fluorescence wavelength [2, 3] | maximum fluorescence wavelength ([2]; pH 7.4, mixed solution of 20 μM 2-TRLG and 100 μM 2-NBDG (FIG. 4)) [nm]
1 | O=[N+]([O-])c1ccc(NC2C(O)OC(CO)[C@@H](O)C2O)c2nonc12 (stereo partly drawn) [2-NBDG, 2-[N-(7-nitrobenz-2-oxa-1,3-diazol-4-yl)amino]-2-deoxy-D-glucose] | green fluorescence from the cell was observed | only green fluorescence derived from 2-NBDG was observed | a difference in the result of the fluorescence detection for 2-NBDG and 2-NBDLG was not observed | significant fluorescence due to the incorporation of 2-NBDG into the cells could be detected | around 540 nm | 540
2 | O=[N+]([O-])c1ccc(NC2C(O)OC(CO)[C@H](O)C2O)c2nonc12 (stereo partly drawn) [2-NBDLG, 2-[N-(7-nitrobenz-2-oxa-1,3-diazol-4-yl)amino]-2-deoxy-L-glucose] | almost no green fluorescence from the cell was observed |  | a difference in the result of the fluorescence detection for 2-NBDG and 2-NBDLG was not observed | could not be detected |  | 
3 | CNc1ccccc1C(=O)N[C@H](C=O)[C@H](O)[C@@H](O)[C@@H](O)CO [2-NMALG, 2-[N-2-(N′-methylamino)benzoylamino]-2-deoxy-L-glucose] |  |  |  |  | around 450 nm | 
